Experimental data as given in ChEMBL document CHEMBL1201862, “PubChem BioAssay data set” (2004).
Calls of active or inactive are those of the source.

Legend:
[1] = HEp-2 cell cytotoxicity, dose response, cytotoxicity control for RSV inhibitor project, HTS (AID 2410); format: functional; settings: human respiratory syncytial virus
[2] = Luminescence Cell-Based Dose Retest to Confirm Inhibitors of Cancer Stem Cells. [Related pubchem assays (depositor defined):AID2717, AID2721]; format: functional; settings: Homo sapiens
Cytochrome P450 1A2 = target: T1, Cytochrome P450 1A2 (Homo sapiens, UniProt P05177);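 note: PubChem cytochrome P450 panel assay, CYP1A2 panel member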
T1 sequence (P05177 whole entry): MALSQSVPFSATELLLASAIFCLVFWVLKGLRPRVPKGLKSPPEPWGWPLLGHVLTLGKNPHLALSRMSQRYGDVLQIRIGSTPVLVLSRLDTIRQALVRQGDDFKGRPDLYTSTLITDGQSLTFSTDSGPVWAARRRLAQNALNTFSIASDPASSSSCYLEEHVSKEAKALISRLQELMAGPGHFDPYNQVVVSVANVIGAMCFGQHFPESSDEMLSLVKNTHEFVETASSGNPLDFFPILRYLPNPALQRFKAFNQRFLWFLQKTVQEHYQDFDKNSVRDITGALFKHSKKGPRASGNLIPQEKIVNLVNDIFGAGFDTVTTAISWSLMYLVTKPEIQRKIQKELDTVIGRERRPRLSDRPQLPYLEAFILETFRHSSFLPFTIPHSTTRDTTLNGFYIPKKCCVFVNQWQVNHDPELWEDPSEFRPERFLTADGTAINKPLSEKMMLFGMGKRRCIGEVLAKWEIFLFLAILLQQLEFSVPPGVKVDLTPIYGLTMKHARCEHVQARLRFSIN

Cytochrome P450 2D6 = Cytochrome P450 2D6 (Homo sapiens, UniProt P10635);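 note: CYP2D6 member of a cytochrome P450 panel assay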
Chain of Cytochrome P450 2D6 (P10635 whole entry): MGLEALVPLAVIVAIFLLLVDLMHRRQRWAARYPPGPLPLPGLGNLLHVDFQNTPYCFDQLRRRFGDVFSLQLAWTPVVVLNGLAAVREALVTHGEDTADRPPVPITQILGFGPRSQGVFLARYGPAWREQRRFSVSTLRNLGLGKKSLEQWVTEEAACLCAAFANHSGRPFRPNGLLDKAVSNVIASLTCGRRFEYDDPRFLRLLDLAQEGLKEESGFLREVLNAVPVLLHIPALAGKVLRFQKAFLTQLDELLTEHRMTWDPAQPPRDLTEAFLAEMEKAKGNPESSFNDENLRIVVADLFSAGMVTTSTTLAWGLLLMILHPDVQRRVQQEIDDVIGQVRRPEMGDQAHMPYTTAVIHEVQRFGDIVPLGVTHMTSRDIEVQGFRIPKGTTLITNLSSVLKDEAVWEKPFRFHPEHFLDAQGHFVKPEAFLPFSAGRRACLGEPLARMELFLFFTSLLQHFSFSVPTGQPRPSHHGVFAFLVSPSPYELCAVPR

Cytochrome P450 3A4 = Cytochrome P450 3A4 (Homo sapiens, UniProt P08684);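 note: CYP3A4 tested as one member of a cytochrome P450 panel screen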
Chain of Cytochrome P450 3A4 (P08684 whole entry): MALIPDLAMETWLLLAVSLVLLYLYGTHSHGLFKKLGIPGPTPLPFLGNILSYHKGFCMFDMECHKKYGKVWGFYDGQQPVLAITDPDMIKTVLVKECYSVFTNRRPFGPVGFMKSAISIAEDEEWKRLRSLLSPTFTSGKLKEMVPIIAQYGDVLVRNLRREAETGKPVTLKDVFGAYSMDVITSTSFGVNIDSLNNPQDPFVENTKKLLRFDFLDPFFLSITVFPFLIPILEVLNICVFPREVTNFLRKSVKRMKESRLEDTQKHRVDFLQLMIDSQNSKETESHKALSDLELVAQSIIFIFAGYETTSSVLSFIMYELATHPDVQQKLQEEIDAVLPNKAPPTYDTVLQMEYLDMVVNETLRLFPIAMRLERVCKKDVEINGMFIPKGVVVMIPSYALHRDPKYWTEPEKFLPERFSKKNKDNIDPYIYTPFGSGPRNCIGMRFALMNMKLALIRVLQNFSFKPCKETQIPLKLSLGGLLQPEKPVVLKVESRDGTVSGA

Cytochrome P450 2C9 = Cytochrome P450 2C9 (Homo sapiens, UniProt P11712)
Chain of Cytochrome P450 2C9 (P11712 whole entry): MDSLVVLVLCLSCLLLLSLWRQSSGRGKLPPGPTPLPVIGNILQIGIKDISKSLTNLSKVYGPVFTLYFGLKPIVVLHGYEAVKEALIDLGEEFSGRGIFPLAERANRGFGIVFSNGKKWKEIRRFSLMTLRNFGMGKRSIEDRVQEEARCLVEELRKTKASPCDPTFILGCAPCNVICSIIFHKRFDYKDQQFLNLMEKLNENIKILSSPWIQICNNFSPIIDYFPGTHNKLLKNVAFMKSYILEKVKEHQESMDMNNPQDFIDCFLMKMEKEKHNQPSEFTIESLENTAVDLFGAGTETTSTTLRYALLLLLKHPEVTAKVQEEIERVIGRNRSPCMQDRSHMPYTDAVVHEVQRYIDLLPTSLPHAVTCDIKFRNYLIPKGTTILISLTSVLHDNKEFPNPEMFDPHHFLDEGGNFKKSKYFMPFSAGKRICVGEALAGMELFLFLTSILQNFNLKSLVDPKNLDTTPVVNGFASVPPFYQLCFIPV

Row | Compound | CC50 [1] | AC50 (Cytochrome P450 2D6) | also measured
1 | CCC(C)(C)NC(=O)CSc1nc(Cc2ccccc2)nc2ccccc12 | > 50 µM (active) |  | 
2 | Cc1noc(C)c1C(=O)Nc1ccc(C#N)cc1 | 23.4 µM (active) |  | 
3 | CCc1ccc(N(CC(=O)Nc2nc3ccc(C)cc3s2)S(=O)(=O)c2c(C)noc2C)cc1 |  |  | AC50 [2]: 3.45 µM (active)
4 | O=C1c2cccc3c([N+](=O)[O-])ccc(c23)C(=O)N1CCc1ccccn1 | 7.83 µM (active) |  | 
5 | Cc1c(C(=O)N(CCc2ccccc2)Cc2ccccc2)cccc1[N+](=O)[O-] | 25.5 µM (active) |  | 
6 | CN1CCN(c2ncncc2-c2ccccc2C(F)(F)F)CC1 |  | 20 µM (inconclusive) | AC50 (Cytochrome P450 1A2): 31.6 µM (inconclusive); AC50 (Cytochrome P450 3A4): 3.98 µM (inconclusive)
7 | C[C@@H]1CC[C@]2(C(=O)O)CC[C@]3(C)C(=CCC4[C@]56CC[C@@](O)(OC5)C(C)(C)C6CC[C@]43C)C2[C@H]1C (stereo partly drawn) |  |  | AC50 [2]: 5.61 µM (active)
8 | CCN(CC)S(=O)(=O)c1cccc(NC(=O)c2cc3ccccc3o2)c1 | 10.9 µM (active) |  | 
9 | Clc1cccc(Nc2nnc(-c3ccccc3)c3ccccc23)c1 |  | 2 µM (inconclusive) | AC50 (Cytochrome P450 3A4): 7.94 µM (inconclusive)
10 | CCc1ccc(Nc2cnn(-c3nc4ccccc4s3)c(=O)c2Cl)cc1 | 44.6 µM (active) |  | 
11 | COc1ccc(NC(=O)CSc2nc3ccccc3cc2Cc2ccccc2)cc1 |  | 0.2 µM (inconclusive) | AC50 (Cytochrome P450 2C9): 1.26 µM (inconclusive)
12 | O=C(CCc1nc(-c2ccccc2)no1)NCCc1ccccc1 |  | 39.8 µM (inconclusive) | AC50 (Cytochrome P450 2C9): 15.8 µM (inconclusive)
13 | Cc1ccc(-c2noc(CCC(=O)NCCCN3CCN(c4cccc(Cl)c4)CC3)n2)cc1 | > 50 µM (active) |  | 
14 | Cc1cc(O)nc(N/N=C/c2ccc(-c3ccc(F)cc3)o2)n1 |  |  | AC50 [2]: 9.21 µM (active)
15 | Cc1cc(C(C)(C)CC(C)(C)C)ccc1OCCOCC[N+](C)(C)Cc1ccccc1 [METHYLBENZETHONIUM] |  | 12.6 µM (inconclusive) | AC50 (Cytochrome P450 1A2): 12.6 µM (inconclusive)
16 | CCC(=O)O[C@@]1(C(=O)CCl)[C@@H](C)C[C@@H]2[C@H]3CCC4=CC(=O)C=C[C@@]4(C)[C@]3(F)[C@@H](O)C[C@@]21C |  | 10 µM (inconclusive) | AC50 (Cytochrome P450 2C9): 15.8 µM (inconclusive)
